≈ marks a conversion by molar mass, not a printed value. Positions of bridges follow the written chain, without caps; N, C: chain ends. Non-standard residues stand in square brackets, D forms with d. Residues, ends and D or L forms follow the SMILES beside them. *: point of attachment. Benzoyl(4-Me) = Cc1ccc(C(=O)*)cc1; Decanoyl = CCCCCCCCCC(=O)*; Octanoyl = CCCCCCCC(=O)*; Orn = NCCC[C@H](N)C(=O)O; Dab = NCC[C@H](N)C(=O)O; Abu = CC[C@H](N)C(=O)O; Dap = NC[C@H](N)C(=O)O; Hexanoyl = CCCCCC(=O)*
Experiments:
[1] = system: Acinetobacter baumannii
Description: (§1) MICs of the lipopeptides (trifluoroacetic acid salt, TFA) were determined by broth microdilution in cation-adjusted Mueller-Hinton broth (CAMHB) (Oxoid Australia, Thebarton, SA, Australia) according to Clinical and Laboratory Standards Institute standards (Clinical and Laboratory Standards Institute. Performance standards for antimicrobial susceptibility testing; eighteenth informational supplement M100-S18. Wayne, Pa., 2008). Polymyxin B (sulphate) was employed as control. […]

[2] = system: Enterobacter cloacae
Description: as §1

[3] = system: Pseudomonas aeruginosa
Description: as §1

For `CCCCCCCC(=O)N[C@@H](CCN)C(=O)N[C@H](C(=O)N[C@@H](CN)C(=O)N[C@H]1CCNC(=O)[C@H]([C@@H](C)O)NC(=O)[C@H](CCCN)NC(=O)[C@H](CCN)NC(=O)[C@H]([C@@H](C)O)NC(=O)[C@@H](CC(C)C)NC(=O)[C@H](CCN)NC1=O)[C@@H](C)O` [Compound 53] (Octanoyl-[Dab]T[Dap][Dab][Dab][dL]T[Dab][Orn]T; lactam 4-C), the “Minimum inhibitory concentration, Ab A ATCC 17978” value [1] was 8 µg/mL (≈ 7 µM), the “Minimum inhibitory concentration, Ab ATCC 19606” value [1] was 16 µg/mL (≈ 14 µM) and the “Minimum inhibitory concentration, Ab FADDI-AB034” value [1] was 8 µg/mL (≈ 7 µM). The “Minimum inhibitory concentration, Ec FADDI-EC001” value [2] was 0.5 µg/mL (≈ 0.437 µM), the “Minimum inhibitory concentration, Ec FADDI-EC003” value [2] was 2 µg/mL (≈ 1.75 µM) and the “Minimum inhibitory concentration, Ec FADDI-EC006” value [2] was 8 µg/mL (≈ 7 µM). The “Minimum inhibitory concentration, Pa ATCC 27853” value [3] was 8 µg/mL (≈ 7 µM), the “Minimum inhibitory concentration, Pa FADDI-PA022” value [3] was 2 µg/mL (≈ 1.75 µM) and the “Minimum inhibitory concentration, Pa FADDI-PA025” value [3] was >32 µg/mL.
In the case of `CC[C@@H]1NC(=O)[C@@H](CC(C)C)NC(=O)[C@H](CCN)NC(=O)[C@@H](NC(=O)[C@H](CN)NC(=O)[C@@H](NC(=O)[C@H](CCN)NC(=O)c2ccc(C)cc2)[C@@H](C)O)CCNC(=O)[C@H]([C@@H](C)O)NC(=O)[C@H](CCN)NC(=O)[C@H](CCN)NC1=O` [Compound 98] ({Benzoyl(4-Me)}-[Dab]T[Dap][Dab][Dab][dL][Abu][Dab][Dab]T; lactam 4-C), the “Minimum inhibitory concentration, Ab A ATCC 17978” value [1] is reported as 2 µg/mL (≈ 1.81 µM), the “Minimum inhibitory concentration, Ab ATCC 19606” value [1] is reported as 2 µg/mL (≈ 1.81 µM) and the “Minimum inhibitory concentration, Ab FADDI-AB034” value [1] is reported as 2 µg/mL (≈ 1.81 µM). The “Minimum inhibitory concentration, Ec FADDI-EC001” value [2] was 1 µg/mL (≈ 0.905 µM), the “Minimum inhibitory concentration, Ec FADDI-EC003” value [2] was 0.25 µg/mL (≈ 0.226 µM) and the “Minimum inhibitory concentration, Ec FADDI-EC006” value [2] was 2 µg/mL (≈ 1.81 µM). For the same compound, the “Minimum inhibitory concentration, Pa ATCC 27853” value [3] was 0.5 µg/mL (≈ 0.452 µM), the “Minimum inhibitory concentration, Pa FADDI-PA022” value [3] was 0.5 µg/mL (≈ 0.452 µM) and the “Minimum inhibitory concentration, Pa FADDI-PA025” value [3] was 2 µg/mL (≈ 1.81 µM).
With `CCCCCCCCCC(=O)N[C@@H](CCN)C(=O)N[C@H](C(=O)N[C@@H](CN)C(=O)N[C@H]1CCNC(=O)[C@H]([C@@H](C)O)NC(=O)[C@H](CCN)NC(=O)[C@H](CCN)NC(=O)[C@H]([C@@H](C)O)NC(=O)[C@@H](CC(C)C)NC(=O)[C@H](CCN)NC1=O)[C@@H](C)O` [Compound 37] (Decanoyl-[Dab]T[Dap][Dab][Dab][dL]T[Dab][Dab]T; lactam 4-C) the “Minimum inhibitory concentration, Ab A ATCC 17978” value [1] was 0.5 µg/mL (≈ 0.432 µM), the “Minimum inhibitory concentration, Ab ATCC 19606” value [1] was 0.25 µg/mL (≈ 0.216 µM) and the “Minimum inhibitory concentration, Ab FADDI-AB034” value [1] was 0.25 µg/mL (≈ 0.216 µM). For the same compound, the “Minimum inhibitory concentration, Ec FADDI-EC001” value [2] was 0.5 µg/mL (≈ 0.432 µM), the “Minimum inhibitory concentration, Ec FADDI-EC003” value [2] was 4 µg/mL (≈ 3.46 µM) and the “Minimum inhibitory concentration, Ec FADDI-EC006” value [2] was 0.5 µg/mL (≈ 0.432 µM). For the same compound, the “Minimum inhibitory concentration, Pa ATCC 27853” value [3] was 1 µg/mL (≈ 0.864 µM), the “Minimum inhibitory concentration, Pa FADDI-PA022” value [3] was 0.5 µg/mL (≈ 0.432 µM) and the “Minimum inhibitory concentration, Pa FADDI-PA025” value [3] was 2 µg/mL (≈ 1.73 µM).
For `CCCCCCCC(=O)N[C@@H](CCCN)C(=O)N[C@H](C(=O)N[C@@H](CCN)C(=O)N[C@H]1CCNC(=O)[C@H]([C@@H](C)O)NC(=O)[C@H](CCN)NC(=O)[C@H](CCN)NC(=O)[C@H]([C@@H](C)O)NC(=O)[C@@H](CC(C)C)NC(=O)[C@H](CCN)NC1=O)[C@@H](C)O` [Compound 32] (Octanoyl-[Orn]T[Dab][Dab][Dab][dL]T[Dab][Dab]T; lactam 4-C), the “Minimum inhibitory concentration, Ab A ATCC 17978” value [1] was >32 µg/mL, the “Minimum inhibitory concentration, Ab ATCC 19606” value [1] was >32 µg/mL and the “Minimum inhibitory concentration, Ab FADDI-AB034” value [1] was >32 µg/mL. The “Minimum inhibitory concentration, Ec FADDI-EC001” value [2] was 1 µg/mL (≈ 0.864 µM), the “Minimum inhibitory concentration, Ec FADDI-EC003” value [2] was 1 µg/mL (≈ 0.864 µM) and the “Minimum inhibitory concentration, Ec FADDI-EC006” value [2] was >32 µg/mL. The “Minimum inhibitory concentration, Pa ATCC 27853” value [3] was >32 µg/mL, the “Minimum inhibitory concentration, Pa FADDI-PA022” value [3] was 1 µg/mL (≈ 0.864 µM) and the “Minimum inhibitory concentration, Pa FADDI-PA025” value [3] was >32 µg/mL.
For `CCCCCC(=O)N[C@@H](CCN)C(=O)N[C@H](C(=O)N[C@@H](CN)C(=O)N[C@H]1CCNC(=O)[C@H]([C@@H](C)O)NC(=O)[C@H](CCN)NC(=O)[C@H](CCN)NC(=O)[C@H](C)NC(=O)[C@@H](CC(C)C)NC(=O)[C@H](CCN)NC1=O)[C@@H](C)O` [Compound 67] (Hexanoyl-[Dab]T[Dap][Dab][Dab][dL]A[Dab][Dab]T; lactam 4-C), the “Minimum inhibitory concentration, Ab A ATCC 17978” value [1] was 2 µg/mL (≈ 1.87 µM), the “Minimum inhibitory concentration, Ab ATCC 19606” value [1] was 4 µg/mL (≈ 3.73 µM) and the “Minimum inhibitory concentration, Ab FADDI-AB034” value [1] was 4 µg/mL (≈ 3.73 µM). For the same compound, the “Minimum inhibitory concentration, Ec FADDI-EC001” value [2] was <0.125 µg/mL, the “Minimum inhibitory concentration, Ec FADDI-EC003” value [2] was 0.25 µg/mL (≈ 0.233 µM) and the “Minimum inhibitory concentration, Ec FADDI-EC006” value [2] was 0.5 µg/mL (≈ 0.467 µM). For the same compound, the “Minimum inhibitory concentration, Pa ATCC 27853” value [3] was 0.5 µg/mL (≈ 0.467 µM), the “Minimum inhibitory concentration, Pa FADDI-PA022” value [3] was 0.5 µg/mL (≈ 0.467 µM) and the “Minimum inhibitory concentration, Pa FADDI-PA025” value [3] was 2 µg/mL (≈ 1.87 µM).

From patent USRE48335E1, “Polymyxin derivatives as antimicrobial compounds” (priority 2014, dated 2020)
